# Test results from patent US20190015383A1, “CANNABINOID COMPOSITIONS AND METHODS OF PREPARATION THEREOF” (5071, Inc., priority 2017, published 2019).
# Test: Water solubility testing (solubility time in water)
# Assay type: physicochemical
# Settings: 10 mg sample in 240 mL water, magnetic stirring
# Method: Water solubility testing was performed for Compositions C, D1, D2, and E described in Examples 3, 4, and 6. Each composition was tested at temperatures of 22° C. (tap water) and 10° C. (iced tap water). For each test, 240 mL of water at the target temperature (22° C. or 10° C.) was added to a beaker and a magnetic stirrer used with medium agitation, creating a slight vortex. A 10 mg sample of the composition to be tested was added over a 1-2 second time period and allowed to mix. The time in seconds until no particulates were visually discernable (either suspended in solution or settled out) was recorded as the solubility time. The solubility of table sugar (i.e., granulated sucrose) was also tested according to the same procedure for comparison.
# The following categories were used to assess solubility characteristics: <30 sec=excellent to good solubility, 1-3 min=fair solubility, 3-5 min=poor solubility, and >5 min=insoluble.
smiles,measurement,setting,value
"OC[C@H]1O[C@@](CO)(O[C@H]2O[C@H](CO)[C@@H](O)[C@H](O)[C@H]2O)[C@@H](O)[C@@H]1O [Table sugar, sucrose]",Solubility time,10° C. (iced tap water),<60 s
same,Solubility time,22° C. (tap water),22 s
